Laboratory results from patent publication US20160193216A1 (Nimbus Iris, Inc., priority 2012, published 2016).

Target: T1, IRAK4 (Homo sapiens, UniProt Q9NWZ3)
T1 sequence (Q9NWZ3 1-460): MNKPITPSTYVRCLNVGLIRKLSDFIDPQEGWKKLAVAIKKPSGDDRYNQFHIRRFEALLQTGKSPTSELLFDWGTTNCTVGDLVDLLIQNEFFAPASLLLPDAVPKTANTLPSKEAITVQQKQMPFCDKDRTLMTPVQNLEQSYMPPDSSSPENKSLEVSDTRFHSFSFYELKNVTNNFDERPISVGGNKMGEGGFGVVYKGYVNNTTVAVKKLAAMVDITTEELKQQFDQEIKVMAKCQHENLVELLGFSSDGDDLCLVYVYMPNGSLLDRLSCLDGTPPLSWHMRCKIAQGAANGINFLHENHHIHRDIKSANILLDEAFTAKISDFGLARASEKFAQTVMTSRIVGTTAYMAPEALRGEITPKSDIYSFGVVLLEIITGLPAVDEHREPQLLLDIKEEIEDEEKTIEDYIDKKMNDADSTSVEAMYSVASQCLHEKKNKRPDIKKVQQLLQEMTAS
Test: IRAK-4 activity inhibition assay (Caliper)
Format: biochemical
Settings: 37 μM ATP, 3.5 nM IRAK4

IC50: < 5 µM
SMILES: NC(=O)C[C@H]1CCc2sc3ncnc(O[C@H]4CC[C@H](N5CCOCC5)CC4)c3c21 [Compound I-67, 2-((R)-4-(((1r,4R)-4-morpholinocyclohexyl)oxy)-6,7-dihydro-5H-cyclopenta[4,5]thieno[2,3-d]pyrimidin-5-yl)acetamide]
